Results reported in patent US20130324412A1, “N-ALKOXYAMIDES OF 6-(SUBSTITUTED PHENYL)-4-AMINOPICOLINATES AND 2-(SUBSTITUTED PHENYL)-6-AMINO-4-PYRIMIDINECARBOXYLATES AND THEIR USE AS SELECTIVE HERBICIDES FOR CROPS” (DOW AGROSCIENCES LLC, priority 2009, published 2013).

Assays:
Assay type in all cases: in vivo
[1] = tested on: winter oilseed rape (canola) (Brassica napus); experiment: Postemergence herbicidal activity in oilseed rape (canola), crop; design: unit not given here; details: visual rating after 21 d, probit analysis, dose to kill or control 20 percent
Protocol: Seeds of oilseed rape (canola) and the desired weed species were planted in Sun Gro MetroMix® 360 planting mixture, which typically has a pH of 6.0 to 6.8 and an organic matter content of about 30 percent, in plastic pots with a surface area of 95 cm^2. When required to ensure good germination and healthy plants, a fungicide treatment and/or other chemical or physical treatment was applied. The plants were grown for 15-28 d in a greenhouse with an approximate 15-h photoperiod which was maintained at about 23-29° C. during the day and 22-28° C. during the night. Nutrients and water were added on a regular basis and supplemental lighting was provided with overhead metal halide 1000-Watt lamps as necessary. The oilseed rape (canola) plants were utilized for testing when they reached the third or fourth true leaf stage. The weed species were utilized at the fourth true leaf stage.
A weighed amount, determined by the highest rate to be tested, of each test compound was dissolved in 4 mL of a 97:3 v/v mixture of acetone and DMSO to obtain concentrated stock solutions. […] The concentrated stock solutions obtained were diluted with 20 mL of an aqueous mixture containing acetone, water and Agri-Dex crop oil concentrate, in a 16.7:82.1:1.25 v/v ratio to obtain spray solutions containing the highest application rates. Additional application rates were obtained by serial dilution of 12 mL of the high rate solution into a solution containing 2 mL of 97:3 v/v mixture of acetone and DMSO and 10 mL of an aqueous mixture containing acetone, water and Agri-Dex crop oil concentrate, in a 16.7:82.1:1.25 v/v ratio to obtain ½×, ¼×, ⅛× and 1/16× rates of the high rate. Compound requirements are based upon a 12 mL application volume at a rate of 187 L/ha. Formulated compounds were applied to the plant material with an overhead Mandel track sprayer equipped with 8002E nozzles calibrated to deliver 187 L/ha over an application area of 0.503 m^2 at a spray height of 18 inches (43 cm) above the average plant canopy height. Control plants were sprayed in the same manner with the solvent blank.
The treated plants and control plants were placed in a greenhouse as described above and watered by sub-irrigation to prevent wash-off of the test compounds. After 21 d, the condition of the test plants as compared with that of the untreated plants was determined visually and scored on a scale of 0 to 100 percent where 0 corresponds to no injury and 100 corresponds to complete kill.
By applying the well-accepted probit analysis as described by J. Berkson in Journal of the American Statistical Society 1953, 48, 565, and by D. Finney in “Probit Analysis” Cambridge University Press (1952), the above data can be used to calculate GR20 and GR80 values, which are defined as growth reduction factors that correspond to the effective dose of herbicide required to kill or control 20 percent or 80 percent, respectively, of a target plant.

[2] = tested on: lambsquarters (Chenopodium album); experiment: General postemergence herbicidal activity, lambsquarters; details: post-emergence, 336 h, 70 g ai/ha, postemergence, after 14 d, 0 = no injury, 100 = complete kill, read-out: CHEAL % Visual Injury
Procedure, shortened: (§1)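 Greenhouse plants at first to second true leaf stage sprayed overhead at 187 L/ha in acetone/DMSO with crop oil concentrate and surfactant, at a high rate plus ½× to 1/16× serial dilutions. Injury rated visually after 14 d against solvent-blank controls, 0 (none) to 100% (complete kill).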

corn (Zea mays) = experiment: General postemergence herbicidal activity, corn; details: post-emergence, 336 h, 70 g ai/ha, postemergence, after 14 d, 0 = no injury, 100 = complete kill, read-out: ZEAMX % Visual Injury
Procedure, shortened: as §1

## COc1c(Cl)ccc(-c2cc(N)c(Cl)c(C(=O)NOCC(C)C)n2)c1F [Compound 1, 4-amino-3-chloro-6-(4-chloro-2-fluoro-3-methoxyphenyl)-N-(2-methylpropoxy)picolinamide]
[1]
  BRSNW GR20: >70
[2]
  pest or weed control at 70 g/ha: 100%
Corn (Zea mays)
  plant injury at 70 g/ha: 0%

## CONC(=O)c1nc(-c2ccc(Cl)c(OC)c2F)cc(N)c1Cl [Compound 2, 4-Amino-3-chloro-6-(4-chloro-2-fluoro-3-methoxyphenyl)-N-methoxypicolinamide]
[1]
  BRSNW GR20: >70
[2]
  pest or weed control at 70 g/ha: 100%
Corn (Zea mays)
  plant injury at 70 g/ha: 10%
